# In patent US4487937A, “2-(2-Substitutedamino-4-thiazolyl)-2-(1-methoxy-isopropoxyimino)-acetic acids” (Roussel Uclaf, priority 1977, dated 1984):
# Read-outs that look alike come from different tables or passages of the source.
# Key:
# Assay in all cases: In vitro MIC, dilution of a liquid medium
# Type in all cases: cell-based
# [1] = system: Staphylococcus aureus exp. n° 54 146; details: 37° C., read-out: minimum inhibiting concentration (MIC)
# Procedure: (§1) The method used was a dilution of a liquid medium where a series of tubes received the same quantity of a sterile nutritive media and increasing doses of the test compounds were placed therein. Then each tube was seeded with a bacterial strain and was incubated for 24 or 48 hours at 37° C. in an oven. The increasing inhibition was determined by transillumination to determine the minimum inhibiting concentration (MIC in μg/ml) and the results are reported in the following Tables.
# [2] = system: Bacillus subtilis ATCC 6 633; details: read-out: minimum inhibiting concentration (MIC)
# Procedure: as §1
# [3] = system: Streptococcus faecalis 99 F 74; details: Enterococcus faecalis, 99F74, 37° C., read-out: minimum inhibiting concentration (MIC)
# Procedure: as §1
# [4] = system: Proteus mirabilis (indol -) A 235; details: read-out: minimum inhibiting concentration (MIC)
# Procedure: as §1
# [5] = system: Staphylococcus aureus UC 1 128 Penicillin-resistant; details: 37° C., read-out: minimum inhibiting concentration (MIC)
# Procedure: as §1
# [6] = system: Klebsiella pneumoniae Exp. 52 145; details: 37° C., read-out: minimum inhibiting concentration (MIC)
# Procedure: as §1
# [7] = system: Streptococcus pyogenes A 561; details: read-out: minimum inhibiting concentration (MIC)
# Procedure: as §1
# [8] = system: Escherichia Coli Resistant Gentamicine, Tobramycine R 55 123 D; details: read-out: minimum inhibiting concentration (MIC)
# Procedure: as §1
# [9] = system: Streptococcus faecalis 5 432; details: Enterococcus faecalis, 5432, 37° C., read-out: minimum inhibiting concentration (MIC)
# Procedure: as §1
# [10] = system: Staphylococcus aureus ATCC 6 538 Penicillin-Sensitive; details: 37° C., read-out: minimum inhibiting concentration (MIC)
# Procedure: as §1
# [11] = system: Providencia Du 48; details: 37° C., read-out: minimum inhibiting concentration (MIC)
# Procedure: as §1
# [12] = system: Escherichia Coli Resistant Tetracycline ATCC 11 303; details: 37° C., read-out: minimum inhibiting concentration (MIC)
# Procedure: as §1
# [13] = system: Salmonella typhimurium 420; details: Salmonella enterica, read-out: minimum inhibiting concentration (MIC)
# Procedure: as §1
# [14] = system: Escherichia Coli Exp. TO26 B6; details: 37° C., read-out: minimum inhibiting concentration (MIC)
# Procedure: as §1
# [15] = system: Serratia Resistant Gentamicine 2 532; details: 37° C., read-out: minimum inhibiting concentration (MIC)
# Procedure: as §1
# [16] = system: Escherichia Coli Sensitive Tetracycline ATCC 9 637; details: read-out: minimum inhibiting concentration (MIC)
# Procedure: as §1
# [17] = system: Enterobacter cloacae 681; details: 37° C., read-out: minimum inhibiting concentration (MIC)
# Procedure: as §1
# [18] = system: Klebsiella pneumoniae 2 536 Resistant Gentamicine; details: read-out: minimum inhibiting concentration (MIC)
# Procedure: as §1
# [19] = system: Proteus vulgaris (indol +) A 232; details: 37° C., read-out: minimum inhibiting concentration (MIC)
# Procedure: as §1
Structure (SMILES),MIC ([1]; 24 H) [µg/mL],MIC ([1]; 48 H) [µg/mL],"MIC ([2]; ATCC6, 48 H, 37° C.) [µg/mL]",MIC ([3]; 24 H) [µg/mL],MIC ([3]; 48 H) [µg/mL],"MIC ([5]; UC1, 24 H) [µg/mL]","MIC ([5]; UC1, 48 H) [µg/mL]","MIC ([6]; EXP.52145, 24 H) [µg/mL]","MIC ([6]; EXP.52145, 48 H) [µg/mL]",MIC ([8]; 24 h) [µg/mL],MIC ([8]; 48 h) [µg/mL],MIC ([9]; 24 H) [µg/mL],MIC ([9]; 48 H) [µg/mL],"MIC ([10]; ATCC6, 24 H) [µg/mL]","MIC ([10]; ATCC6, 48 H) [µg/mL]","MIC ([11]; DU48, 24 H) [µg/mL]","MIC ([11]; DU48, 48 H) [µg/mL]","MIC ([12]; ATCC11, 24 H) [µg/mL]","MIC ([12]; ATCC11, 48 H) [µg/mL]",MIC ([14]; 24 H) [µg/mL],other results
"CC(=O)OCC1=C(C(=O)O)N2C(=O)C(NC(=O)/C(=N\OCC#N)c3csc(N)n3)C2SC1 (stereo not shown) [Example 8, sodium 7-[2-(2-amino-4-thiazolyl)-2-cyano-methoxyimino-acetamido]-3-acetoxymethyl-ceph-3-eme-4-carboxylate]",2,3,1,10,> 40,2,3,0.05,0.05,0.2,0.2,3,20,2,2,5,5,0.05,0.05,0.2,"MIC ([2]; ATCC6, 24 h): 0.5 µg/mL; MIC ([4]; 24 H, 37° C.): 0.05 µg/mL; MIC ([4]; 48 H, 37° C.): 0.05 µg/mL; MIC ([7]; A561, 24 H, 37° C.): 0.05 µg/mL; MIC ([7]; A561, 48 H, 37° C.): 0.05 µg/mL; MIC ([13]; 24 h): 0.5 µg/mL; MIC ([13]; 48 h): 0.5 µg/mL; MIC ([14]; 48 H): 0.2 µg/mL; MIC ([15]; 24 H): 2 µg/mL; MIC ([15]; 48 H): 2 µg/mL; MIC ([16]; ATCC9, 24 h): 0.5 µg/mL; MIC ([16]; ATCC9, 48 h): 0.5 µg/mL; MIC ([17]; 24 H): 3 µg/mL; MIC ([17]; 48 H): 5 µg/mL; MIC ([18]; 24 H, 37° C.): 1 µg/mL; MIC ([18]; 48 H, 37° C.): 1 µg/mL"
"CC(=O)OCC1=C(C(=O)O)N2C(=O)C(NC(=O)/C(=N\OCC(N)=O)c3csc(N)n3)[C@H]2SC1 (stereo partly shown) [Example 11, sodium 7-[2-(2-amino-4-thiazolyl)-2-(aminocarbonylmethoxyimino)-acetamido]-3-acetoxymethyl-ceph-3-eme-4-carboxylate]",3,5,1,20,> 40,5,5,0.05,0.05,0.1,0.1,5,20,2,3,5,5,0.05,0.05,0.1,"MIC ([2]; ATCC6, 24 h): 0.5 µg/mL; MIC ([4]; 24 h): 0.1 µg/mL; MIC ([4]; 48 h): 0.1 µg/mL; MIC ([7]; A561, 24 h): 0.1 µg/mL; MIC ([7]; A561, 48 h): 0.1 µg/mL; MIC ([19]; 24 H): 5 µg/mL; MIC ([19]; 48 H): 40 µg/mL; MIC ([13]; 24 h): 0.2 µg/mL; MIC ([13]; 48 h): 0.2 µg/mL; MIC ([14]; 48 H): 0.1 µg/mL; MIC ([15]; 24 H): 2 µg/mL; MIC ([15]; 48 H): 2 µg/mL; MIC ([16]; ATCC9, 24 h): 0.2 µg/mL; MIC ([16]; ATCC9, 48 h): 0.5 µg/mL; MIC ([17]; 24 H): 2 µg/mL; MIC ([17]; 48 H): 10 µg/mL; MIC ([18]; 24 h): 0.5 µg/mL; MIC ([18]; 48 h): 0.5 µg/mL"
"CC(=O)OCC1=C(C(=O)O)N2C(=O)C(NC(=O)/C(=N\OC(C)(C)C(=O)O)c3csc(N)n3)[C@H]2SC1 (stereo partly shown) [Example 14, disodium 7-[2-(2-amino-4-thiazolyl)-2-(1-carboxy-1-methylethoxyimino)-acetamido]-3-acetoxymethyl-ceph-3-eme-4-carboxylate]",20,> 40,> 40,> 40,> 40,20,40,1,1,0.5,0.5,> 40,> 40,20,20,2,3,0.2,0.2,0.5,"MIC ([2]; ATCC6, 24 H, 37° C.): 10 µg/mL; MIC ([4]; 24 H, 37° C.): 0.05 µg/mL; MIC ([4]; 48 H, 37° C.): 0.05 µg/mL; MIC ([7]; A561, 24 H, 37° C.): 1 µg/mL; MIC ([7]; A561, 48 H, 37° C.): 1 µg/mL; MIC ([19]; 24 H): 0.1 µg/mL; MIC ([19]; 48 H): 3 µg/mL; MIC ([13]; 24 H, 37° C.): 1 µg/mL; MIC ([13]; 48 H, 37° C.): 1 µg/mL; MIC ([14]; 48 H): 0.5 µg/mL; MIC ([15]; 24 H): 1 µg/mL; MIC ([15]; 48 H): 1 µg/mL; MIC ([16]; ATCC9, 24 h): 0.5 µg/mL; MIC ([16]; ATCC9, 48 h): 0.5 µg/mL; MIC ([17]; 24 H): 40 µg/mL; MIC ([17]; 48 H): > 40 µg/mL; MIC ([18]; 24 H, 37° C.): 1 µg/mL; MIC ([18]; 48 H, 37° C.): 1 µg/mL"
